From ChEMBL document CHEMBL1150482, “Synthesis of the 4,5 diphosphonate analog of D,L-myo-inositol 4,5-diphosphate” (Bioorg Med Chem Lett, 1993)

Assay: Compound was tested for calcium mobilization using rat basophilic leukemia cells at concentration of 5 mM
Format: functional, cell-based
Details: RBL-1

O=P(O)(O)C[C@@H]1[C@@H](O)[C@H](O)[C@H](O)[C@H](O)[C@H]1CP(=O)(O)O
EC50: 70 µM
